This is an account of results in article PMC5803145, “Study on the Structural Effect of Maltoligosaccharides on Cytochrome c Complexes Stabilities by Native Mass Spectrometry” (Natural Products and Bioprospecting, 2018).

The test deals with T1, Cytochrome c (Cyt c) from equine / horse heart (Equus caballus, UniProt P00004).
T1 construct: gene CYCS; mature heme-containing protein
T1 sequence (P00004 2-105): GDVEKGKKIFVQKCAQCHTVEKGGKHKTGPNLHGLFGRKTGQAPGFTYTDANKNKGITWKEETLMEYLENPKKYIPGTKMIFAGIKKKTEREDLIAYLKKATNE
The test can be described thus: native ESI-MS, deconvoluted peak ratios. Particulars: aqueous solution, 0.5 uM Cyt c, 3-7 uM ligand, room temperature, 1 h; stepwise constant of the 1:1 complex. In kind it is binding. From the text: native ESI-MS, deconvoluted peak ratios on Cytochrome c (Cyt c) from equine / horse heart
In the case of `OC[C@H]1O[C@H](O[C@H]2[C@H](O)[C@@H](O)C(O)O[C@@H]2CO)[C@H](O)[C@@H](O)[C@@H]1O` (stereo partly drawn) [Mal II, maltose], the “Ka,1 (10^4 L mol^-1)” value is 3.227 x 10^4 (RSD 2.9%).

`OC[C@H]1O[C@H](O[C@H]2[C@H](O)[C@@H](O)[C@@H](O[C@H]3[C@H](O)[C@@H](O)C(O)O[C@@H]3CO)O[C@@H]2CO)[C@H](O)[C@@H](O)[C@@H]1O` (stereo partly drawn) [Mal III, maltotriose]: the “Ka,1 (10^4 L mol^-1)” value is 3.842 x 10^4 (RSD 2.5%). In the case of `OC[C@H]1O[C@H](O[C@H]2[C@H](O)[C@@H](O)[C@@H](O[C@H]3[C@H](O)[C@@H](O)[C@@H](O[C@H]4[C@H](O)[C@@H](O)C(O)O[C@@H]4CO)O[C@@H]3CO)O[C@@H]2CO)[C@H](O)[C@@H](O)[C@@H]1O` (stereo partly drawn) [Mal IV, maltotetraose], the “Ka,1 (10^4 L mol^-1)” value is reported as 3.279 x 10^4 (RSD 5.6%). Turning to `OC[C@H]1O[C@H](O[C@H]2[C@H](O)[C@@H](O)[C@@H](O[C@H]3[C@H](O)[C@@H](O)[C@@H](O[C@H]4[C@H](O)[C@@H](O)[C@@H](O[C@H]5[C@H](O)[C@@H](O)C(O)O[C@@H]5CO)O[C@@H]4CO)O[C@@H]3CO)O[C@@H]2CO)[C@H](O)[C@@H](O)[C@@H]1O` (stereo partly drawn) [Mal V, maltopentaose], the “Ka,1 (10^4 L mol^-1)” value is 2.654 x 10^4 (RSD 0.80%).

On to `OC[C@H]1O[C@H](O[C@H]2[C@H](O)[C@@H](O)[C@@H](O[C@H]3[C@H](O)[C@@H](O)[C@@H](O[C@H]4[C@H](O)[C@@H](O)[C@@H](O[C@H]5[C@H](O)[C@@H](O)[C@@H](O[C@H]6[C@H](O)[C@@H](O)C(O)O[C@@H]6CO)O[C@@H]5CO)O[C@@H]4CO)O[C@@H]3CO)O[C@@H]2CO)[C@H](O)[C@@H](O)[C@@H]1O` (stereo partly drawn) [Mal VI, maltohexaose], for which the “Ka,1 (10^4 L mol^-1)” value is 2.438 x 10^4 (RSD 2.5%). To `OC[C@H]1O[C@H](O[C@H]2[C@H](O)[C@@H](O)[C@@H](O[C@H]3[C@H](O)[C@@H](O)[C@@H](O[C@H]4[C@H](O)[C@@H](O)[C@@H](O[C@H]5[C@H](O)[C@@H](O)[C@@H](O[C@H]6[C@H](O)[C@@H](O)[C@@H](O[C@H]7[C@H](O)[C@@H](O)C(O)O[C@@H]7CO)O[C@@H]6CO)O[C@@H]5CO)O[C@@H]4CO)O[C@@H]3CO)O[C@@H]2CO)[C@H](O)[C@@H](O)[C@@H]1O` (stereo partly drawn) [Mal VII, maltoheptaose] belongs 2.205 x 10^4 (RSD 1.6%).
